Publication PMC3966047, “Analysis of the minimal specificity of caspase-2 and identification of Ac-VDTTD-AFC as a caspase-2-selective peptide substrate” (Bioscience Reports, 2014)
“Also recorded” adds a separate entry of the source. Where two headings read alike, the source gives them in different places. Blank lines part the entries; values can stand above or below the molecule they belong to. The star is where a group is joined. AFC = O=c1cc(C(F)(F)F)c2ccc(N*)cc2o1; pNA = O=[N+]([O-])c1ccc(N*)cc1

How the values were obtained:
[1] = tested on: auto-activating caspase-3 in HEK-293T cell lysate; assay: Fluorogenic peptide cleavage by lysates of HEK-293T cells expressing auto-activating caspase-3; type: biochemical, human embryonic kidney cells; settings: for cleavage by lysates of cells expressing caspase-3 (in words): HEK-293T lysate, auto-activating caspase-3, 0.1 mM substrate, rate of fluorescence increase, three independent transfections
Procedure: (§1) Caspases were pre-activated for 30 min at 37°C in their preferred buffers, then diluted and mixed with fluorogenic peptide substrates. Fluorescence (excitation 410 nm, emission 500 nm) was measured every 10–60 s for up to 1 h using a FluoStar Galaxy (BMG Labtech). The maximal slope of each curve was calculated. A standard curve, using free AFC (Sigma), was used to convert fluorescence emissions into concentration of AFC produced during the cleavage reactions. Prism 5.0 software was used to determine kcat and KM from three to four independent experiments, as previously described. Ac-DEVD-AFC and Ac-VDVAD-AFC were purchased from Enzo Life Sciences. The custom substrates Ac-VDTTD-AFC and Ac-VDVPD-AFC were synthesized by 21st Century Biochemicals. 150 nM Bid or 100 nM Runx1 proteins were incubated with specified concentrations of caspases in their preferred buffers for 1 h (Runx1) or 0.5 h (Bid variants) at 37°C, then subjected to SDS–PAGE and immunoblotting with anti-Bid (#AF860 R&D Systems) or anti-His6 antibodies (#A00186 GenScript). Secondary antibodies were anti-mouse-HRP (#A9044, Sigma) or anti-goat-HRP (#6300-05, Southern Biotech). The SuperSignal West Dura Substrate (Thermo Scientific) was used to detect signals and quantitation of sub-saturated exposures was performed using a Syngene G:Box and Image Lab 3.0 software (BioRad). Linear regression was used to determine the caspase concentration, which cleaved half of each protein.
(§2) HEK-293T cells [human embryonic kidney cells expressing the large T-antigen of SV40 (simian virus 40)] were cultured, transfected, harvested and lysed as described except that protease inhibitors were not used. Each lysate was mixed with the appropriate fluorogenic substrate (0.1 mM) in caspase buffer, and fluorescence was monitored as outlined above.

[2] = tested on: auto-activating caspase-2 in HEK-293T cell lysate; assay: Fluorogenic peptide cleavage by lysates of HEK-293T cells expressing auto-activating caspase-2; type: biochemical, human embryonic kidney cells; settings: for caspase-2 versus caspase-3 selectivity in cell lysates (in words): HEK-293T lysates with auto-activating caspase-2 or -3, 0.1 mM substrate
Procedure: as §1, §2

caspase-2 [3] = assay: Fluorogenic peptide cleavage by purified caspase-2 (AFC release); type: biochemical; settings: for selectivity for caspase-2 relative to caspase-3 (in words): purified caspases-2 and -3
Procedure: (§3) Caspases-2, -3 and -8 were purified using NiNTA resin (Qiagen) from BL21(DE3)pLysS bacteria (Novagen/Merck) transformed with pET23a–caspase-2^Δ1−149 [44], pET23a–caspase-3 [54] or pET15b–caspase-8^Δ1−216 plasmids. Induction conditions were: caspase-2, 0.4 mM IPTG (isopropyl β-D-thiogalactoside), 2 h 37°C; caspase-3, 0.2 mM IPTG, 3 h 30°C; caspase-8, 1 mM IPTG, 4 h 25°C. Caspases were active site-titrated using zVAD-fmk (Merck). ArcticExpress DE3 bacteria (Agilent Technologies) were transformed with the pET23a Bid expression plasmids described above, induced for 48 h at 10°C using 1 mM IPTG, then the His6-tagged Bid proteins were purified using NiNTA resin (Qiagen). Recombinant proteins were quantitated using the Bicinchoninic acid protein assay kit (Sigma). Runx1 proteins were synthesized using the TNT T7 quick coupled transcription/translation system (Promega) with non-radioactive methionine, using intact Runx1–pET23a plasmids as templates. The concentration of Runx1 proteins was determined by quantitative anti-His6 immunoblotting, using purified AcP35–His6 [56] as a standard.
as §1

caspase-3 [4] = target: T1, caspase-3 (Homo sapiens, UniProt P42574); assay: Fluorogenic peptide cleavage by purified caspase-3 (AFC release); type: biochemical
T1 construct: made in house; host or cells: E. coli BL21(DE3)pLysS
T1 sequence (P42574 29-175 limits assumed): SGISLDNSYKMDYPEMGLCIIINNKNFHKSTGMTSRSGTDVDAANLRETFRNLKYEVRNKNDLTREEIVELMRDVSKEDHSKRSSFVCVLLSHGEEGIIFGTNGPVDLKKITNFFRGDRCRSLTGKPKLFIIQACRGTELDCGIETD
T1 sequence (P42574 176-277 limits assumed): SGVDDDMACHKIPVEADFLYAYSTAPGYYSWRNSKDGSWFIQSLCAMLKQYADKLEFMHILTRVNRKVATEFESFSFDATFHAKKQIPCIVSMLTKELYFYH
Procedure: as §3
as §1, with “150 nM Bid or 100 nM Runx1 proteins were incubated with specified concentrations of caspases in their preferred buffers for 1 h (Runx1) or 0.5 h (Bid variants) at 37°C, then subjected to SDS–PAGE and immunoblotting with anti-Bid (#AF860 R&D Systems) or anti-His6 antibodies (#A00186 GenScript). Secondary antibodies were anti-mouse-HRP (#A9044, Sigma) or anti-goat-HRP (#6300-05, Southern Biotech).” left out, “Linear regression was used to determine the caspase concentration, which cleaved half of each protein.” left out

caspase-2 [5] = settings: aldehyde inhibitors; cited from earlier work
Source text: (§4) Research into caspase-2 biology has been hampered by a dearth of selective reagents capable of distinguishing between caspases-2 and -3. Peptides and inhibitors based on the sequence VDVAD are marketed as ‘caspase-2-specific’ but also react strongly with caspase-3.

caspase-3 [6] = target: T1, caspase-3; settings: aldehyde inhibitors; cited from earlier work
Source text: as §4

caspase-2 [7] = settings: cited from earlier work
Source text: (§5) Some of the confusion regarding the function of caspase-2 may stem from researchers’ use of non-specific tools for monitoring its activity and inhibition. […] Subsequent studies have confirmed the lack of specificity associated VDVAD-based tools, yet many researchers continue to employ substrates and inhibitors derived from this peptide sequence as c ...

caspase-3 [8] = target: T1, caspase-3; settings: compared with caspase-2; cited from earlier work
Source text: as §5

caspase-2 [9] = settings: cited from earlier work; remark: listed apart in the source
Source text: It seems likely that identification of caspase-2 substrates may provide valuable clues to its biological role. […] Apoptotic signalling by caspase-2 has been proposed to result from its processing of the pro-apoptotic Bcl-2 relative Bid. […] Runx1 plays a critical role in haematopoiesis, and Runx1 translocations or other mutations occur frequently in myeloid leukaemias, and less commonly in other cancer types.

caspase-3 [10] = target: T1, caspase-3; assay: Runx1 cleavage by caspase-3 (anti-His6 immunoblot); type: biochemical; settings: 100 nM in vitro-translated Runx1, 1 h, 37°C
Procedure: as §3, with “Runx1 proteins were synthesized using the TNT T7 quick coupled transcription/translation system (Promega) with non-radioactive methionine, using intact Runx1–pET23a plasmids as templates.” left out
(§6) Caspases were pre-activated for 30 min at 37°C in their preferred buffers, then diluted and mixed with fluorogenic peptide substrates. Fluorescence (excitation 410 nm, emission 500 nm) was measured every 10–60 s for up to 1 h using a FluoStar Galaxy (BMG Labtech). The maximal slope of each curve was calculated. A standard curve, using free AFC (Sigma), was used to convert fluorescence emissions into concentration of AFC produced during the cleavage reactions. […]

caspase-8 [11] = assay: Runx1 cleavage by caspase-8 (anti-His6 immunoblot); type: biochemical; settings: 100 nM in vitro-translated Runx1, 1 h, 37°C
Procedure: as §3, with “Runx1 proteins were synthesized using the TNT T7 quick coupled transcription/translation system (Promega) with non-radioactive methionine, using intact Runx1–pET23a plasmids as templates.” left out
as §6

caspase-2 [12] = assay: Runx1 cleavage by caspase-2 (anti-His6 immunoblot); type: biochemical; settings: 100 nM in vitro-translated Runx1, 1 h, 37°C
Procedure: as §3, with “Runx1 proteins were synthesized using the TNT T7 quick coupled transcription/translation system (Promega) with non-radioactive methionine, using intact Runx1–pET23a plasmids as templates.” left out
as §6

caspase-8 [13] = assay: Bid protein cleavage by caspase-8 (anti-Bid immunoblot); type: biochemical; settings: 150 nM Bid protein, 0.5 h, 37°C
Procedure: as §3, with “Runx1 proteins were synthesized using the TNT T7 quick coupled transcription/translation system (Promega) with non-radioactive methionine, using intact Runx1–pET23a plasmids as templates.” left out
as §6

caspase-2 [14] = assay: Bid protein cleavage by caspase-2 (anti-Bid immunoblot); type: biochemical; settings: 150 nM Bid protein, 0.5 h, 37°C, preferred buffer, from caspase concentration cleaving half of the substrate
Procedure: as §3, with “Runx1 proteins were synthesized using the TNT T7 quick coupled transcription/translation system (Promega) with non-radioactive methionine, using intact Runx1–pET23a plasmids as templates.” left out
as §6

caspase-8 [15] = settings: subsequent data; cited from earlier work
Source text: It seems likely that identification of caspase-2 substrates may provide valuable clues to its biological role. […] Apoptotic signalling by caspase-2 has been proposed to result from its processing of the pro-apoptotic Bcl-2 relative Bid.

caspase-3 [16] = target: T1, caspase-3; assay: Bid protein cleavage by caspase-3 (anti-Bid immunoblot); type: biochemical; settings: 150 nM Bid protein, 0.5 h, 37°C
Procedure: as §3, with “Runx1 proteins were synthesized using the TNT T7 quick coupled transcription/translation system (Promega) with non-radioactive methionine, using intact Runx1–pET23a plasmids as templates.” left out
as §6

[17] = preferred buffer, anti-Bid immunoblot, from caspase concentration cleaving half of the substrate

Molecule: Ac-DEVD-AFC [reference compound]
cleavage by lysates of cells expressing caspase-3 (in words) [1]: extracts from cells expressing active caspase-3 cleaved Ac-DEVD-AFC most efficiently

cleavage efficiency relative to Ac-VDVAD-AFC (caspase-2) (caspase-2 [3]; purified caspase-2, fold versus Ac-VDVAD-AFC): four
cleavage efficiency relative to Ac-VDVAD-AFC (caspase-3) (caspase-3 [4]; fold versus Ac-VDVAD-AFC): 1.7 times
Molecule: Ac-VDTTD-{AFC} [custom fluorogenic substrate synthesized by 21st Century Biochemicals]
cleavage by lysates of cells expressing caspase-3 (in words) [1]: proteolysed by lysates containing caspase-3, but at a slower rate than by lysates from cells expressing caspase-2
DEVDase activity relative to VDTTDase activity ([1]; cells expressing active caspase-3, Ac-DEVD-AFC versus Ac-VDTTD-AFC, 0.1 mM substrate): 3.3 times
cleavage by lysates of cells expressing caspase-2 (in words) ([2]; HEK-293T lysate, auto-activating caspase-2, 0.1 mM substrate, rate of fluorescence increase, three independent transfections): efficiently cleaved by purified caspase-2 and auto-activating caspase-2 in mammalian cells; also recorded: lysates from cells expressing active caspase-2 cleaved Ac-VDTTD-AFC more efficiently than the other peptides
caspase-2 versus caspase-3 selectivity in cell lysates (in words) [2]: significantly more selective for caspase-2 than the commonly used Ac-VDVAD-AFC peptide; also recorded: does not offer this degree of specificity
VDTTDase activity relative to DEVDase activity ([2]; lysates from cells expressing caspase-2, background activity in vector transfectant lysates subtracted, 0.1 mM substrate): ~14 times
cleavage by caspase-2 (in words) (caspase-2 [3]; purified caspase-2): efficiently cleaved by purified caspase-2
selectivity for caspase-2 relative to caspase-3 (in words) (caspase-2 [3]): better selectivity for caspase-2 relative to caspase-3 than reagents that are currently available; also recorded: exhibits enhanced caspase-2 sensitivity and specificity, relative to Ac-VDVAD-AFC
cleavage by caspase-3 (in words) (caspase-3 [4]): only cleaved it slightly more efficiently than Ac-VDVAD-AFC

Molecule: Ac-VDVAD-aldehyde
inhibition of caspase-2 compared with caspase-3 (in words) (caspase-2 [5]): inhibited caspases-2 and -3 with similar potencies
inhibition of caspase-3 compared with caspase-2 (in words) (caspase-3 [6]): inhibited caspases-2 and -3 with similar potencies

Molecule: Ac-VDVAD-pNA
cleavage by caspase-2 (in words) (caspase-2 [7]): could efficiently cleave peptides containing the sequence VDVAD
cleavage by caspase-3 (in words) (caspase-3 [8]): caspase-3 could cleave these peptides with similar kinetics

Molecule: Ac-VDVAD-{AFC} [classical caspase-2 substrate, purchased from Enzo Life Sciences, reference compound]
caspase-2 versus caspase-3 selectivity in cell lysates (in words) [2]: cleaved only slightly better by extracts from cells expressing caspase-2 than caspase-3

Molecule: Ac-VDVPD-aldehyde
inhibition of caspase-2 compared with caspase-3 (in words) (caspase-2 [5]): inhibited caspases-2 and -3 with similar potencies
inhibition of caspase-3 compared with caspase-2 (in words) (caspase-3 [6]): inhibited caspases-2 and -3 with similar potencies

Molecule: Ac-VDVPD-{AFC} [custom fluorogenic substrate based on the Runx1 cleavage site]
caspase-2 versus caspase-3 selectivity in cell lysates (in words) [2]: cleaved at similar rates in cell lysates containing active caspases-2 or -3
cleavage by caspase-2 (in words) (caspase-2 [3]; purified caspase-2): enhanced sensitivity to caspase-2 relative to Ac-VDVAD-AFC; also recorded: cleaved by caspase-2 slightly better than Ac-VDVAD
selectivity for caspase-2 relative to caspase-3 (in words) (caspase-2 [3]): less specific than Ac-VDVAD-AFC for caspase-2 relative to caspase-3; also recorded: lacked the sought-after selectivity for caspase-2 over caspase-3
cleavage by caspase-3 (in words) (caspase-3 [4]): proteolysed this substrate more efficiently than Ac-VDVAD-AFC

Molecule: Cux1: transcription factor Cux1
cleavage by caspase-2 (in words) (caspase-2 [9]): efficiently cleaved

Molecule: EIF4B: translation initiation factor EIF4B
cleavage by caspase-2 versus other caspases (in words) (caspase-2 [9]; degradomics, lysates): more efficiently cleaved by caspase-2

Runx1 cleavage by caspase-3 (in words) (caspase-3 [10]): yielded a larger product
Runx1 cleavage by caspase-8 (in words) (caspase-8 [11]): yielded a larger product
Runx1 cleavage by caspase-2 (in words) (caspase-2 [12]): yielded a larger product
Molecule: Runx1^DVPG: P1 mutant of Runx1

processing efficiency by caspase-8 relative to caspase-2 (caspase-8 [13]): about seven
second-order rate constant (estimate of kcat/KM), caspase-8 (caspase-8 [13]; [17]): 22000 M⁻¹ s⁻¹
second-order rate constant (estimate of kcat/KM), caspase-2 (caspase-2 [14]): 3200 M⁻¹ s⁻¹
second-order rate constant (estimate of kcat/KM), caspase-3 (caspase-3 [16]; [17]): 160 M⁻¹ s⁻¹
B1: wild-type Bid: Bid protein bearing the native LQTD cleavage site (protein, UniProt P55957 1-195, looked up)
BH3-interacting domain death …: MDCEVNNGSSLRDECITNLLVFGFLQSCSDNSFRRELDALGHELPVLAPQWEGYDELQTDGNRSSHSRLGRIEADSESQEDIIRNIARHLAQVGDSMDRSIPPGLVNGLALQLRNTSRSEEDRNRDLATALEQLLQAYPRDMEKEKTMLVLALLLAKKVASHTPSLLRDVFHTTVNFINQNLRTYVRSLARNGMD
Bid cleavage by caspases-2 and -8 (in words) (caspase-2 [9]; initial results): could cleave Bid with similar efficiency
Bid cleavage by caspase-8 compared with caspase-2 (in words) (caspase-8 [15]): the processing by caspase-8 was more efficient
Bid cleavage by caspase-3 (in words) (caspase-3 [16]; immunoblot): barely sensitive to proteolysis by even high concentrations of caspase-3
